Experimental data as given in publication PMC10711279 (Frontiers in Pharmacology, 2023).

Legend:
[1] = parameters: method as in Turner and Merlis, 1959; settings: dose range 5–20 mg; ref Turner and Merlis, 1959; cited from earlier work
[2] = Blood plasma levels (LC-MS/MS) after DMT/harmine administration
Method: Blood samples were collected from the left antecubital vein at −30 (baseline), −15, 0, 15, 30, 45, 60, 90, 120, 180, 240, 300 and 360 min after the first DMT administration for analysis of blood plasma levels of harmine, DMT and the two major DMT metabolites 3-indole acetic acid (3-IAA) and N-methyl-tryptamine (NMT). […] Blood samples were immediately centrifuged for 10 min at 2000 RCF. Then, plasma was transferred to Eppendorf tubes, shock-frozen in liquid nitrogen (∼-196°C), and stored at −80°C until assayed.
For the sample preparation 200 µL of plasma were spiked with 50 µL internal standard (IS) mixture (40 ng/mL DMT-d6 and harmine-d3) and 50 µL methanol (MeOH). Proteins were precipitated by adding 400 µL of acetonitrile (ACN). The samples were shaken for 10 min and centrifuged for 5 min at 10,000 rpm. 350 μL of the supernatant was transferred into an auto-sampler vial, evaporated to dryness under a gentle stream of nitrogen at room temperature and reconstituted in 100 µL eluent-mixture (98:2, v/v). External calibrator and quality control (QC) samples were prepared accordingly, replacing the MeOH with a calibrator or QC solution mixtures. Calibrator and QC samples containing 3-IAA were prepared separately, replacing plasma with water. The calibration ranges were 0.5–500 ng/mL for DMT and DMT-N-oxide, 2.5–120 ng/mL for harmine, 1–80 ng/mL for harmol, 0.015–10 ng/mL for NMT and 35–3,000 ng/mL for 3-IAA.
Samples were analyzed on an ultra-high performance liquid chromatography (UHPLC) system (Thermo Fisher, San Jose, CA) coupled to a linear ion trap quadrupole mass spectrometer 5,500 (Sciex, Darmstadt, Germany). The mobile phases consisted of a mixture of water (eluent A) and ACN (eluent B), both containing 0.1% formic acid (v/v). Using a Kinetex C18 column 50 × 2.1 mm, 2.6 µm (Phenomenex, Aschaffenburg, Germany), the flow rate was set to 0.5 mL/min with the following gradient: starting conditions 98% eluent A, decreasing to 70% within 4 min, followed by a quick decrease to 5% within 1 min, holding for 0.5 min and returning to starting conditions for 1.5 min, resulting in a total runtime of 7 min. The mass spectrometer was operated in positive electrospray ionization mode with scheduled multiple reaction monitoring. The following transitions of precursor ions to product ions were selected as quantifier ions: DMT m/z 189→115, DMT-N-oxide m/z 205→117, harmine m/z 213→169, harmol m/z 199→131, NMT m/z 175→144 and 3-IAA m/z 176→103.

[3] = ref Vogt et al., 2023; cited from earlier work
[4] = in vivo; cited from earlier work
[5] = day 1, 250 mg oral harmine + 30 mg oral DMT
[6] = day 2, 250 mg oral harmine + 50 mg oral DMT
[7] = day 3, 150 mg buccal harmine + max 50 mg intranasal DMT
[8] = day 4, 200 mg buccal harmine + max 90 mg intranasal DMT

Compound | Peak of the mean plasma concentrations [2, 5] [ng/mL] | Peak of the mean plasma concentrations [2, 6] [ng/mL] | Peak of the mean plasma concentrations [2, 7] [ng/mL] | Peak of the mean plasma concentrations [2, 8] [ng/mL] | Duration of action [4] [h] | further results
CN(C)CCc1c[nH]c2ccccc12 [DMT freebase, N,N-dimethyltryptamine] |  |  |  |  |  | Effect of intranasal administration [1]: ineffective
CN(C)CCc1c[nH]c2ccccc12 [DMT, N,N-dimethyltryptamine] | 27.9 ± 15.5 | 23.6 ± 11.9 | 23.9 ± 5.0 | 33.1 ± 9.3 |  | Plasma elimination half-life [3]: 5 to 10 min
CCN(CC)C(=O)[C@@H]1C=C2c3cccc4[nH]cc(c34)C[C@H]2N(C)C1 [LSD] |  |  |  |  | 10 to 12 | 
COc1ccc2c(c1)[nH]c1c(C)nccc12 [harmine] | 125.5 ± 111.2 | 104.8 ± 100.5 | 93.9 ± 33.5 | 132.4 ± 111.6 |  | Tmax ([2]; human, plasma, po): 1 to 4.5 h
CN(C)CCc1c[nH]c2cccc(OP(=O)(O)O)c12 [psilocybin] |  |  |  |  | 4 to 6 | 
